In ChEMBL document CHEMBL3046565, “Fungicidal and herbicidal activities of berberine related alkaloids” (2000):

How the values were obtained:
Assay type in all cases: functional
[1] = test system: Blumeria graminis f. sp. tritici; test: Antifungal activity against Blumeria graminis f. sp. tritici on wheat plant assessed as disease control at 100 ppm after 24 hr
Rhizoctonia solani = test: Antifungal activity against Rhizoctonia solani on rice plant at 25 ppm after 24 hr
Parastagonospora nodorum [2] = test: Antifungal activity against Phaeosphaeria nodorum on wheat plant at 25 ppm after 24 hr
Ustilago maydis = test: Antifungal activity against Ustilago maydis on rice plant at 25 ppm after 24 hr; details: Mycosarcoma maydis
Puccinia recondita = test: Antifungal activity against Puccinia recondita on wheat plant assessed as disease control at 100 ppm after 24 hr
Lemna minor = test: Herbicidal activity against Lemna minor (common duckweed) at 1 ppm after 9 days relative to control
Parastagonospora nodorum [3] = test: Antifungal activity against Phaeosphaeria nodorum on wheat plant assessed as disease control at 100 ppm after 24 hr
Phytophthora infestans = test: microbe, parasite or virus in culture; details: in Oryza sativa, 24 h
Pyricularia oryzae = test: microbe, parasite or virus in culture; details: 24 h
[4] = test system: Agrostis stolonifera var. palustris; test: Herbicidal activity against Agrostis stolonifera var. palustris at 1 ppm after 9 days relative to control
Zymoseptoria tritici = test: Antifungal activity against Zymoseptoria tritici on wheat plant at 25 ppm after 24 hr

| Compound | Activity [1] | inhibition at 25 ppm (Rhizoctonia solani) | inhibition at 25 ppm (Parastagonospora nodorum [2]) | inhibition at 25 ppm (Ustilago maydis) | Activity (Puccinia recondita) | Activity (Lemna minor) | Activity (Parastagonospora nodorum [3]) | inhibition at 25 ppm (Phytophthora infestans) | inhibition at 25 ppm (Pyricularia oryzae) | Activity [4] | inhibition at 25 ppm (Zymoseptoria tritici) |
| --- | --- | --- | --- | --- | --- | --- | --- | --- | --- | --- | --- |
| COc1ccc2c(O)c3[n+](cc2c1OC)CCc1cc2c(cc1-3)OCO2.[Cl-] [13-HYDROXYBERBERINE] | 41% | 0% | 0% | 0% | 67% | 0% | 0% | 40% | 0% | 0% | 0% |
| CCCCCCc1c2[n+](cc3c(OC)c(OC)ccc13)CCc1cc3c(cc1-2)OCO3.[Cl-] | 0% | 0% | 0% | 0% | 83% | 60% | 87% | 0% | 0% | 0% | 100% |
| COc1cc2c(cc1OC)-c1cc3ccc(OC)c(OC)c3c[n+]1CC2.[Cl-] [PALMATINE CHLORIDE] | 0% | 0% | 0% | 0% | 0% | 0% | 0% | 0% | 0% | 0% | 80% |
| CCc1c2[n+](cc3c(OC)c(OC)ccc13)CCc1cc3c(cc1-2)OCO3.[Cl-] | 0% | 0% | 0% | 0% | 58% | 70% | 60% | 0% | 0% | 0% | 90% |
| COc1ccc2c(c1OC)C[N@+]1(C)CCc3cc4c(cc3[C@@H]1[C@H]2O)OCO4.[Cl-] | 0% | 0% | 0% | 0% | 0% | 0% | 0% | 0% | 0% | 0% | 0% |
| COc1ccc2cc3[n+](cc2c1O)CCc1cc2c(cc1-3)OCO2 [BERBERRUBINE] | 0% | 0% | 0% | 0% | 0% | 0% | 0% | 0% | 0% | 0% | 0% |
| CCCCc1c2[n+](cc3c(OC)c(OC)ccc13)CCc1cc(OC)c(OC)cc1-2.[Cl-] | 0% | 0% | 0% | 0% | 0% | 65% | 73% | 0% | 0% | 0% | 90% |
| COc1ccc2c(c1OC)CN1CCc3cc4c(cc3[C@@H]1[C@@H]2C)OCO4.Cl | 0% | 0% | 0% | 0% | 0% | 0% | 0% | 0% | 0% | 0% | 0% |
| COc1ccc2cc3[n+](cc2c1OC)CCc1cc2c(cc1-3)OCO2.[Cl-] [BERBERINE CHLORIDE] | 0% | 0% | 0% | 0% | 0% | 75% | 0% | 0% | 0% | 0% | 90% |
| CCCc1c2[n+](cc3c(OC)c(OC)ccc13)CCc1cc3c(cc1-2)OCO3.[Cl-] | 0% | 0% | 0% | 0% | 0% | 65% | 67% | 0% | 0% | 0% | 90% |
| COc1ccc2c(c1OC)C[N@@+]1(C)CCc3cc4c(cc3[C@@H]1[C@@H]2C)OCO4.[Cl-] | 0% | 0% | 0% | 0% | 0% | 0% | 0% | 0% | 0% | 0% | 0% |
| CCCCCCc1c2[n+](cc3c(OC)c(OC)ccc13)CCc1cc(OC)c(OC)cc1-2.[Cl-] [13-HEXYLPALMATINE] | 0% | 0% | 0% | 0% | 67% | 70% | 80% | 0% | 0% | 0% | 100% |
| COc1ccc2c(c1OC)CN1CCc3cc4c(cc3[C@@H]1[C@H]2O)OCO4.Cl | 0% | 0% | 0% | 0% | 0% | 0% | 0% | 0% | 0% | 0% | 0% |
| COc1cc2c(cc1OC)-c1cc3ccc(OC)c(O)c3c[n+]1CC2.[Cl-] [PALMATRUBINE] | 0% | 0% | 0% | 0% | 0% | 0% | 0% | 0% | 0% | 0% | 0% |
| CCOc1c(OC)ccc2c(CC)c3[n+](cc12)CCc1cc2c(cc1-3)OCO2.[Cl-] [9-O-ETHYL-13-ETHYLBERBERRUBINE] | 0% | 0% | 0% | 0% | 8% | 70% | 87% | 0% | 0% | 0% | 90% |
| CCCc1c2[n+](cc3c(OC)c(OC)ccc13)CCc1cc(OC)c(OC)cc1-2.[Cl-] | 0% | 0% | 0% | 0% | 0% | 65% | 73% | 0% | 0% | 0% | 0% |
| COc1ccc2c(c1OC)C[N+]1(C)CCc3cc4c(cc3C1=C2C)OCO4.[Cl-] (configuration not stated) | 0% | 0% | 0% | 40% | 0% | 0% | 0% | 0% | 0% | 0% | 0% |
| COc1ccc2c(C)c3[n+](cc2c1OC)CCc1cc2c(cc1-3)OCO2.[Cl-] | 0% | 0% | 0% | 0% | 75% | 75% | 0% | 0% | 0% | 0% | 80% |
| COc1ccc2c(c1OC)C[N@@+]1(C)CCc3cc4c(cc3[C@@H]1[C@H]2O)OCO4.[Cl-] | 0% | 0% | 0% | 0% | 0% | 0% | 0% | 0% | 0% | 0% | 0% |
| CCCCc1c2[n+](cc3c(OC)c(OC)ccc13)CCc1cc3c(cc1-2)OCO3.[Cl-] | 0% | 0% | 0% | 0% | 0% | 60% | 67% | 0% | 0% | 0% | 90% |
| COc1cc2c(cc1OC)-c1c(C)c3ccc(OC)c(OC)c3c[n+]1CC2.[Cl-] | 0% | 0% | 0% | 0% | 0% | 65% | 0% | 0% | 0% | 0% | 0% |
| CCc1c2[n+](cc3c(OC)c(OC)ccc13)CCc1cc(OC)c(OC)cc1-2.[Cl-] | 0% | 0% | 0% | 0% | 0% | 70% | 0% | 0% | 0% | 0% | 0% |
